Drawing on patent publication US20260092071A1, “COMPOUNDS AND COMPOSITIONS AS SMARCA2/4 DEGRADERS AND USES THEREOF” (REGENTS OF THE UNIVERSITY OF MICHIGAN, priority 2022, published 2026), this text covers DC50 and Dmax for nine compounds.

Some results are limits rather than exact numbers.

Assay [1] deals with SMARCA2 (Homo sapiens, UniProt P51531). In words: HiBit assay in engineered HT1080 CRISPR knock-in cell, 6 hrs (B series), SMARCA2. As to conditions: 6 hrs incubation; for DC50: HT1080 CRISPR knock-in cells, read-out: SMARC A2 HT1080 HiBit DC50; for Dmax: HT-1080, HT1080 CRISPR knock-in cells, read-out: SMARC A2 HT1080 HiBit Dmax (%). Type of assay: cell-based. A digest of the protocol:
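HT1080 CRISPR knock-in cells carrying the HiBiT tag were seeded onto compounds (final DMSO 0.1%) and incubated 6 hrs at 37° C, 5% CO2. Remaining tagged protein was detected by lytic HiBiT luminescence after adding LgBiT protein and substrate, with LgBiT-free wells serving as negative control.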
(In general: HiBiT is a short tag that completes a luciferase, so light tracks the accessible tagged protein.)

The target of assay [2] is SMARCA4 (Homo sapiens, UniProt P51532). In words: HiBit assay in engineered HT1080 CRISPR knock-in cell, 6 hrs (B series), SMARCA4. Type of assay: cell-based. As to conditions: 6 hrs incubation; for DC50: HT1080 CRISPR knock-in cells, read-out: SMARC A4 HT1080 HiBit DC50; for Dmax: HT-1080, HT1080 CRISPR knock-in cells, read-out: SMARC A4 HT1080 HiBit Dmax(%). The essentials:
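Using a 6 hr treatment window at 37° C and 5% CO2, tagged HT1080 knock-in cells were exposed to test compounds with DMSO vehicle held at 0.1%. Signal came from lytic LgBiT/substrate reagent added after incubation, with control wells lacking LgBiT, and was read as luminescence.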

SMARCA4, sequence (P51532 whole entry): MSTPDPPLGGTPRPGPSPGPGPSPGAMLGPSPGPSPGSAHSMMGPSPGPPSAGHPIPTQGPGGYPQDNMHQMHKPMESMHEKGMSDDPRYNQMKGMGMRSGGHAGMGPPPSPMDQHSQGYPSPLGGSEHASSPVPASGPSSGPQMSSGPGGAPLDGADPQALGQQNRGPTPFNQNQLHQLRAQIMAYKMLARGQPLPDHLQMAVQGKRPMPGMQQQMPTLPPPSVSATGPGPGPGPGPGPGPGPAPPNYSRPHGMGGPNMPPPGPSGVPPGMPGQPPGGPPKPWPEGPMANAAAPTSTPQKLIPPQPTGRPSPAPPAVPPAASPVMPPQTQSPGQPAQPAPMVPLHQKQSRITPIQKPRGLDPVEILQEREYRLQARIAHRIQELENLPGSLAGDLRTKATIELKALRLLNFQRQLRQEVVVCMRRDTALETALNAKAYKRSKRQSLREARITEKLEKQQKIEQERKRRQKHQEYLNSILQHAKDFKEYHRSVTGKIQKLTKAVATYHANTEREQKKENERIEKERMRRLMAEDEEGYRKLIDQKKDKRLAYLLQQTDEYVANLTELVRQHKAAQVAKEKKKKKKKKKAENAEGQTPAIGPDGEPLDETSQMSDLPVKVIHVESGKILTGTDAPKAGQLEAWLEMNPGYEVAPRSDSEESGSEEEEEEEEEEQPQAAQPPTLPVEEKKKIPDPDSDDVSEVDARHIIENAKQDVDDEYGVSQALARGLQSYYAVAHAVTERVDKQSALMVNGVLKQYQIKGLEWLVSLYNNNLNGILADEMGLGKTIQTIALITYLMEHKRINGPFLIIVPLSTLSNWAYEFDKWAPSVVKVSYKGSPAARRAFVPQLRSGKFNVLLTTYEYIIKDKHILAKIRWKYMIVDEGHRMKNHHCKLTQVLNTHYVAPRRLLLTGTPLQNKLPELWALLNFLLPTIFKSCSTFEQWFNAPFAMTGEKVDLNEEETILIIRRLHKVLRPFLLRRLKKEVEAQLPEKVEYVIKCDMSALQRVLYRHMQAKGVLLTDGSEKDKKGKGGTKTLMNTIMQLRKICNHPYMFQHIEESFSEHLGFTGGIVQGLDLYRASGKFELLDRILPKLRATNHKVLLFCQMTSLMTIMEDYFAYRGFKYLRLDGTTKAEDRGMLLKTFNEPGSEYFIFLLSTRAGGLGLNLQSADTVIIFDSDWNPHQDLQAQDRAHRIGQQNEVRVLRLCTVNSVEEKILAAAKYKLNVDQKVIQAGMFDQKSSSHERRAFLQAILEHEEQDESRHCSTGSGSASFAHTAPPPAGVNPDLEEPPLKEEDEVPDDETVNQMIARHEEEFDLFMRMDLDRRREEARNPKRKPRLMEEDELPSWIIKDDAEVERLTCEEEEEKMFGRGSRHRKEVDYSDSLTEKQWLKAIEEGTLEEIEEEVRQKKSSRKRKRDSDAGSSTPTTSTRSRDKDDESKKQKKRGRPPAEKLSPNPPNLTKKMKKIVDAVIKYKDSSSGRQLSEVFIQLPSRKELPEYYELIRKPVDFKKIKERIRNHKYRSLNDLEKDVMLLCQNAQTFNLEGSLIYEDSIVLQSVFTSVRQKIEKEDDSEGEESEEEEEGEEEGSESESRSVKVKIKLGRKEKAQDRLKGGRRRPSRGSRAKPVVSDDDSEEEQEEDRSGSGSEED
SMARCA2, sequence (P51531 whole entry): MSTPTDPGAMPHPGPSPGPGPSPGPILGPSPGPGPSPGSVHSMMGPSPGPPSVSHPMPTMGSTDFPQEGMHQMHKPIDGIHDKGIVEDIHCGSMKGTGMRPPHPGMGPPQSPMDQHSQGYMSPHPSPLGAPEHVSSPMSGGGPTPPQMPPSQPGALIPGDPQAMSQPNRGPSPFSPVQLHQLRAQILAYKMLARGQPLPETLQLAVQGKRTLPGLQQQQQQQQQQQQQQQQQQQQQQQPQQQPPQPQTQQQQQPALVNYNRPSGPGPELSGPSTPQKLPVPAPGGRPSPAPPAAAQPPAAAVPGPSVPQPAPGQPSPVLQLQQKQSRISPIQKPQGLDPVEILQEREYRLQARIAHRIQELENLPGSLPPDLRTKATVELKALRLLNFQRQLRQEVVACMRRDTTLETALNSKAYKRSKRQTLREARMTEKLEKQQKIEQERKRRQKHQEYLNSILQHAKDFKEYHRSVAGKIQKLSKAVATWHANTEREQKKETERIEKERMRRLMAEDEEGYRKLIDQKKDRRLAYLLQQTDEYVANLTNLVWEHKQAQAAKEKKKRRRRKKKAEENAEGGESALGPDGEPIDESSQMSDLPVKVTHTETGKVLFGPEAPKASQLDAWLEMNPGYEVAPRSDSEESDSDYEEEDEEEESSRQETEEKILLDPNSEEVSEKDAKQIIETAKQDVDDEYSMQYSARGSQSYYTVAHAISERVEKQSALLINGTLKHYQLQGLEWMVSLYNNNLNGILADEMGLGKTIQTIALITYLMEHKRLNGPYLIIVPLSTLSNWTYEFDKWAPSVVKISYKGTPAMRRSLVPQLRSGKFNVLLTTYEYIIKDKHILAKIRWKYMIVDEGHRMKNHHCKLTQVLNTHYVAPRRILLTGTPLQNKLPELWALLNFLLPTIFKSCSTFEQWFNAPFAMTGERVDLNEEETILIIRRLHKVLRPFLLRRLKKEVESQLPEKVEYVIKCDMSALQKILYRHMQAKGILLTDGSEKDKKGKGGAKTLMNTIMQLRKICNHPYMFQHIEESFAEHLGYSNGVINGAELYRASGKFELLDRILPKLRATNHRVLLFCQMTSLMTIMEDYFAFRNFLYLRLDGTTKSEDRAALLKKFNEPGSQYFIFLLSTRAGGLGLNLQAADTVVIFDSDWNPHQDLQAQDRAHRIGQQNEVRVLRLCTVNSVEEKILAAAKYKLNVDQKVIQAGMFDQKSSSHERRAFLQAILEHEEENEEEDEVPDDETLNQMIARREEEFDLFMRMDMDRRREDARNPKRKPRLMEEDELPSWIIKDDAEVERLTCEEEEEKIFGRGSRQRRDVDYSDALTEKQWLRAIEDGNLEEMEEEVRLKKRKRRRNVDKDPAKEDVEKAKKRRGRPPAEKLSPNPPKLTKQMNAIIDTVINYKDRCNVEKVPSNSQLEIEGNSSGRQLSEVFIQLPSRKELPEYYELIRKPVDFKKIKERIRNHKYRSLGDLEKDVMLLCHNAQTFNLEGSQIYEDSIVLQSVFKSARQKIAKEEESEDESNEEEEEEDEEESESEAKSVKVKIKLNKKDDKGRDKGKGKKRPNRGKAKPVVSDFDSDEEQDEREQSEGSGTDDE

In the case of `Cc1ncsc1-c1ccc([C@H](C)NC(=O)[C@@H]2C[C@@H](O)CN2C(=O)[C@@H](NC(=O)CCN2CCC(c3ccc4c(c3)-n3c(nc(=O)c5c(Cl)cccc53)C4(C)C)CC2)C(C)(C)C)cc1` [Compound B43, (2S,4R)-1-((S)-2-(3-(4-(4-chloro-7,7-dimethyl-5-oxo-5,7-dihydroindolo[1,2-a]quinazolin-10-yl)piperidin-1-yl)propanamido)-3,3-dimethylbutanoyl)-4-hydroxy-N—((S)-1-(4-(4-methylthiazol-5-yl)phenyl)ethyl)pyrrolidine-2-carboxamide], in assay [1], the DC50 was 100 to 500 nM and the Dmax was in the range of 50 to 69%. For the same compound, in assay [2], the DC50 is above 1000 nM and the Dmax is below 50%.
For `Cc1ncsc1-c1ccc([C@H](CC(=O)NCCN2CCC(c3ccc4c(c3)-n3c(nc(=O)c5c(Cl)cccc53)C4(C)C)CC2)NC(=O)[C@@H]2C[C@@H](O)CN2C(=O)[C@@H](NC(=O)C2(F)CC2)C(C)(C)C)cc1` [Compound B44, (2S,4R)-N-((S)-3-((2-(4-(4-chloro-7,7-dimethyl-5-oxo-5,7-dihydroindolo[1,2-a]quinazolin-10-yl)piperidin-1-yl)ethyl)amino)-1-(4-(4-methylthiazol-5-yl)phenyl)-3-oxopropyl)-1-((S)-2-(1-fluorocyclopropane-1-carboxamido)-3,3-dimethylbutanoyl)-4-hydroxypyrrolidine-2-carboxamide], in that order: 100 to 500 nM, below 50%, 100 to 500 nM and below 50%.
Regarding `Cc1ncsc1-c1ccc([C@H](C)NC(=O)[C@@H]2C[C@@H](O)CN2C(=O)[C@@H](NC(=O)CCCN2CCC(c3ccc4c(c3)-n3c(nc(=O)c5c(Cl)cccc53)C4(C)C)CC2)C(C)(C)C)cc1` [Compound B45, (2S,4R)-1-((S)-2-(4-(4-(4-chloro-7,7-dimethyl-5-oxo-5,7-dihydroindolo[1,2-a]quinazolin-10-yl)piperidin-1-yl)butanamido)-3,3-dimethylbutanoyl)-4-hydroxy-N-((S)-1-(4-(4-methylthiazol-5-yl)phenyl)ethyl)pyrrolidine-2-carboxamide], in assay [1], the DC50 is 100 to 500 nM and the Dmax lay within 70 to 90%. Also, in assay [2], the DC50 is above 1000 nM and the Dmax was below 50%.
In the case of `Cc1ncsc1-c1ccc([C@H](CCCCCn2cc(-c3ccc4c(c3)-n3c(nc(=O)c5c(Cl)cccc53)C4(C)C)cn2)NC(=O)[C@@H]2C[C@@H](O)CN2C(=O)[C@@H](NC(=O)C2(F)CC2)C(C)(C)C)cc1` [Compound B46, (2S,4R)-N-((S)-6-(4-(4-chloro-7,7-dimethyl-5-oxo-5,7-dihydroindolo[1,2-a]quinazolin-10-yl)-1H-pyrazol-1-yl)-1-(4-(4-methylthiazol-5-yl)phenyl)hexyl)-1-((S)-2-(1-fluorocyclopropane-1-carboxamido)-3,3-dimethylbutanoyl)-4-hydroxypyrrolidine-2-carboxamide], in assay [1], the DC50 was below 100 nM and the Dmax fell in the range of 70 to 90%. Besides, in assay [2], the DC50 is below 100 nM and the Dmax lay within 70 to 90%.
As to `Cc1ncsc1-c1ccc([C@H](C)NC(=O)[C@@H]2C[C@@H](O)CN2C(=O)[C@@H](NC(=O)C2CCC(N3CCC(c4ccc5c(c4)-n4c(nc(=O)c6c(Cl)cccc64)C5(C)C)CC3)CC2)C(C)(C)C)cc1` (stereo partly drawn) [Compound B47, (2S,4R)-1-((S)-2-(4-(4-(4-chloro-7,7-dimethyl-5-oxo-5,7-dihydroindolo[1,2-a]quinazolin-10-yl)piperidin-1-yl)cyclohexane-1-carboxamido)-3,3-dimethylbutanoyl)-4-hydroxy-N-((S)-1-(4-(4-methylthiazol-5-yl)phenyl)ethyl)pyrrolidine-2-carboxamide], in assay [1], the DC50 fell in the range of 100 to 500 nM and the Dmax is 70 to 90%. For the same compound, in assay [2], the DC50 lay within 100 to 500 nM and the Dmax was below 50%.
As for `Cc1ncsc1-c1ccc([C@H](C)NC(=O)[C@@H]2C[C@@H](O)CN2C(=O)[C@@H](NC(=O)[C@H]2CC[C@H](Cn3cc(-c4ccc5c(c4)C(C)(C)c4nc(=O)c6c(Cl)cccc6n4-5)cn3)CC2)C(C)(C)C)cc1` [Compound B48, (2S,4R)-1-((S)-2-((1r,4S)-4-((4-(4-chloro-7,7-dimethyl-5-oxo-5,7-dihydroindolo[1,2-a]quinazolin-9-yl)-1H-pyrazol-1-yl)methyl)cyclohexane-1-carboxamido)-3,3-dimethylbutanoyl)-4-hydroxy-N—((S)-1-(4-(4-methylthiazol-5-yl)phenyl)ethyl)pyrrolidine-2-carboxamide], in assay [1], the DC50 is below 100 nM and the Dmax fell in the range of 70 to 90%. In addition, in assay [2], the DC50 was 100 to 500 nM and the Dmax was below 50%.
For `Cc1ncsc1-c1ccc([C@H](C)NC(=O)[C@@H]2C[C@@H](O)CN2C(=O)[C@H](C(C)C)n2cc(CN3CCC(c4ccc5c(c4)-n4c(nc(=O)c6c(Cl)cccc64)C5(C)C)CC3)nn2)cc1` [Compound B49, (2S,4R)-1-((S)-2-(4-((4-(4-chloro-7,7-dimethyl-5-oxo-5,7-dihydroindolo[1,2-a]quinazolin-10-yl)piperidin-1-yl)methyl)-1H-1,2,3-triazol-1-yl)-3-methylbutanoyl)-4-hydroxy-N-((S)-1-(4-(4-methylthiazol-5-yl)phenyl)ethyl)pyrrolidine-2-carboxamide], in that order: below 100 nM, 70 to 90%, above 1000 nM and below 50%.
The matching figures for `Cc1ncsc1-c1ccc([C@H](C)NC(=O)[C@@H]2C[C@@H](O)CN2C(=O)[C@@H](NC(=O)CCCCN2CCC(c3ccc4c(c3)-n3c(nc(=O)c5c(Cl)cccc53)C4(C)C)CC2)C(C)(C)C)cc1` [Compound B50, (2S,4R)-1-((S)-2-(5-(4-(4-chloro-7,7-dimethyl-5-oxo-5,7-dihydroindolo[1,2-a]quinazolin-10-yl)piperidin-1-yl)pentanamido)-3,3-dimethylbutanoyl)-4-hydroxy-N-((S)-1-(4-(4-methylthiazol-5-yl)phenyl)ethyl)pyrrolidine-2-carboxamide]: 100 to 500 nM, 70 to 90%, above 1000 nM and below 50%.
For `Cc1ncsc1-c1ccc([C@H](C)NC(=O)[C@@H]2C[C@@H](O)CN2C(=O)[C@@H](n2cc([C@H]3CC[C@H](CN4CCC(c5ccc6c(c5)-n5c(nc(=O)c7c(Cl)cccc75)C6(C)C)CC4)CC3)nn2)C(C)(C)C)cc1` [Compound B51, (2S,4R)-1-((S)-2-(4-((1r,4S)-4-((4-(4-chloro-7,7-dimethyl-5-oxo-5,7-dihydroindolo[1,2-a]quinazolin-10-yl)piperidin-1-yl)methyl)cyclohexyl)-1H-1,2,3-triazol-1-yl)-3,3-dimethylbutanoyl)-4-hydroxy-N-((S)-1-(4-(4-methylthiazol-5-yl)phenyl)ethyl)pyrrolidine-2-carboxamide], in that order: below 100 nM, above 90%, below 100 nM and 70 to 90%.
